Columns and labels:
Botrytis cinerea = experiment: effectiveness on Botrytis cinerea; format: in vivo; settings: at 330 ppm; comparison compounds of WO 01/11965
Peronosporaparasitica = experiment: efficacy against Peronospora parasitica; format: in vivo; settings: at 330 ppm; comparison compound of WO 01/11965
Alternaria brassicae = experiment: in vivo test on Alternaria brassicae (Leaf spot of crucifers); settings: for effectiveness on Alternaria brassicae: at 330 ppm, comparison compounds of WO 01/11965
Protocol: in vivo test on Alternaria brassicae (Leaf spot of crucifers)
The active ingredient tested is prepared by potter homogenisation in a concentrated suspension type formulation at 100 g/l. This suspension is then diluted with water to obtain the desired active material concentration.
Radish plants (Pernot variety) in starter cups, sown on a 50/50 peat soil-pozzolana substrate and grown at 18-20° C., are treated at the cotyledon stage by spraying with the aqueous suspension described above.
Plants, used as controls, are treated with an aqueous solution not containing the active material.
After 24 hours, the plants are contaminated by spraying them with an aqueous suspension of Alternaria brassicae spores (40,000 spores per cm^3). The spores are collected from a 12 to 13 days-old culture.
The contaminated radish plants are incubated for 6-7 days at about 18° C., under a humid atmosphere.
Grading is carried out 6 to 7 days after the contamination, in comparison with the control plants.

SMILES | effectiveness on Botrytis cinerea (Botrytis cinerea) | efficacy against Peronospora parasitica (Peronosporaparasitica) | effectiveness on Alternaria brassicae (Alternaria brassicae) | protection (good (at least 50%) or total) (Alternaria brassicae; 330 ppm, radish plants sprayed 24 h before contamination, grading 6 to 7 days after contamination vs control plants)
CCNC(=O)C(Cc1ncc(C(F)(F)F)cc1Cl)NC(=O)c1ccccc1Br (stereo not shown) [compound 310, N-{1-ethylcarbamoyl-2-[3-chloro-5-(trifluoromethyl)-2-pyridinyl]ethyl}-2-bromobenzamide] | zero effectiveness | – | – | –
CCNC(=O)C(Cc1ncc(C(F)(F)F)cc1Cl)NC(=O)c1ccccc1 (stereo not shown) [compound 304, N-{1-ethylcarbamoyl-2-[3-chloro-5-(trifluoromethyl)-2-pyridinyl]-ethyl}-benzamide] | zero effectiveness | – | – | –
O=C(Cc1cccs1)NCc1ncc(C(F)(F)F)cc1Cl [compound 101, N-{[3-chloro-5-(trifluoromethyl)-2-pyridinyl]methyl}-5-thienylacetamide] | no efficacy | no efficacy | poor efficacy | –
CNC(=O)C(Cc1ncc(C(F)(F)F)cc1Cl)NC(=O)c1ccccc1 (stereo not shown) [compound 314, N-{1-methylcarbamoyl-2-[3-chloro-5-(trifluoromethyl) -2-pyridinyl]ethyl}-benzamide] | zero effectiveness | – | – | –
CNC(=O)C(Cc1ncc(C(F)(F)F)cc1Cl)NC(=O)c1ccc(-c2ccccc2)cc1 (stereo not shown) [compound 316, N-{1-methylcarbamoyl-2-[3-chloro-5-(trifluoromethyl)-2-pyridinyl]-ethyl}-4-phenylbenzamide] | zero effectiveness | – | poor effectiveness | –
Cn1cc(C(=O)NCCc2ccc(C(F)(F)F)nc2)c(C(F)(F)F)n1 [Compound A-1, N-[2-(6-trifluoromethyl-3-pyridinyl)ethyl]-1-methyl-3-(trifluoromethyl)-1H-pyrazole-4-carboxamide] | – | – | – | at least 50%
CCNC(=O)C(Cc1ncc(C(F)(F)F)cc1Cl)NC(=O)c1ccc(Cl)cc1 (stereo not shown) [compound 306, N-{1-ethylcarbamoyl-2-[3-chloro-5-(trifluoromethyl) -2-pyridinyl]ethyl}-4-chlorobenzamide] | zero effectiveness | – | – | –
CCNC(=O)C(Cc1ncc(C(F)(F)F)cc1Cl)NC(=O)c1cccc([N+](=O)[O-])c1 (stereo not shown) [compound 307, N-{1-ethylcarbamoyl-2-[3-chloro-5-(trifluoromethyl)-2-pyridinyl]ethyl}-3-nitrobenzamide] | zero effectiveness | – | poor effectiveness | –
CNC(=O)C(Cc1ncc(C(F)(F)F)cc1Cl)NC(=O)c1ccc(OC)cc1 (stereo not shown) [compound 315, N-{1-methylcarbamoyl-2-[3-chloro-5-(trifluoromethyl)-2-pyridinyl]ethyl}-4-methoxybenzamide] | zero effectiveness | – | – | –

Source: US20080096932A1, “3-Pyridinylethylcarboxamide Derivatives as Fungicides” (priority 2004, published 2008)
